Laboratory results from article PMC3340893, “IspE Inhibitors Identified by a Combination of In Silico and In Vitro High-Throughput Screening” (PLoS ONE, 2012).
In brackets after ≈: the same amount, converted by molar mass. Like-named read-outs stand apart in the source and are kept apart here.

How the values were obtained:
EcIspE [1] = molecular target: T1, EcIspE (Escherichia coli, UniProt P62615); assay: IspE inhibition assay (Promega Kinase-Glo Plus), IC50 determination; format: biochemical; conditions: for Ligand efficiency: from IC50 converted to Ki assuming competitive inhibition of the cytidine binding site, KM 150 µM, [CDP-ME] 500 µM, T = 298 K; for EcIspE inhibition at 100 µM: typical protein kinase inhibitors evaluated as possible standard inhibitor; for fold weaker IC50 / loss in potency compared to the screening hit: relative to parent screening hit (4, 7 or 8)
T1 construct: made in house
Experimental: Inhibition of EcIspE was measured using the Promega Kinase-Glo®-Plus kit. This kit determines the remaining ATP concentration after the kinase reaction took place by converting luciferin to oxyluciferin via an ATP-dependent luciferase. Oxyluciferin is chemoluminescent and can be detected using a plate reader.
The assay was performed under the following conditions: 90 µM ATP, 500 µM CDP-ME, 200 nM EcIspE in 100 mM Tris-HCl, pH 8.5, 20 mM MgCl2, 2% DMSO, 0.01% (v/v) Triton-X 100. The reaction was carried out in 384-well plates with 25 µl reaction volumes, incubated at 25°C for 180 min, and stopped with 25 µl Kinase-Glo® Plus reagent (Promega, Madison, USA). The chemoluminescence signal was developed for 45 min at room temperature and read out in a plate reader (TopCount, PerkinElmer, USA). To monitor assay performance and to control for inhibition of the luciferase of the Kinase-Glo® Plus kit wells containing either the reaction mixture plus compound 3 or 4 or all ingredients except for CDP-ME were also prepared. Further, as quality control for each assay plate, wells containing the kinase reaction without an inhibitor, and wells containing only ATP in assay buffer were prepared. The signals of these wells were averaged (AVHIGH, AVLOW) and used to calculate the signal to noise ratio (AVHIGH/AVLOW) and Z′ (1− [drawing 1]; SD: standard deviation). The best performance was obtained with an ATP concentration of 90 µM and a CDP-ME concentration of 500 µM (Signal to noise ratio = 3.3, Z′ = 0.69 in assay development). In this setup the ATP and CDP-ME concentrations are ∼0.2×K M and ∼3×K M, respectively. Consequently, the assay can be used to detect ligands binding to both the substrate and co-factor binding sites.
(§1) Compounds were dissolved in DMSO at concentrations between 10 and 200 mM (depending on maximal solubility) and added to the reaction mixture with a final concentration of 2% DMSO (v/v). For compounds where IspE inhibition was indicated, a 1∶3 dilution series in DMSO was prepared and tested in the same endpoint assay. IC50 values were derived by non-linear regression with a 4-parameter fit to the following equation in GraFit (Erithacus Software Ltd., Surrey, UK). [drawing 2] where y: measured signal of assay: ymax: saturated signal: [I]: inhibitor concentration: slope: Hill slope; ymin: background signal of assay.
As the assay was performed at relatively high substrate concentrations (∼3×K M) for ligand efficiency calculations, the measured IC50 values were first converted to K i values.
Ligand efficiencies were calculated using the formula: [drawing 4] where T = 298 K and R = the ideal gas constant.

[2] = Solubility limit in the assay; format: physicochemical; conditions: EcIspE assay reaction mixture, aqueous buffer, kinetic from dmso stock; highest concentration tested in the EcIspE assay
From the text: In the modelled binding mode of ligand 4 the pyrrolopyridine scaffold is sandwiched between Tyr24 and Tyr175 and potentially interacts with His25 via three hydrogen bonds (Figure 12a). In addition, the charged amino group in the tetrahydropyrimidinium ring may form a salt bridge interaction with Asp130. Commercially available analogues of this compound were selected to probe possible interactions with Asp130, His25 and the backbone of Lys145 (Figure 13, Table 4). […] Accordingly, these compounds can no longer form a salt bridge with Asp130. In the predicted binding mode of 12 a neutral hydrogen-bond via the thio-urea group is formed with Asp130 instead while 13 is assumed to interact with Lys9 NZ and Thr171 OG1 (Figure 12c and d). […] In order to accommodate 14 in the binding site in a similar binding mode as 4, structural rearrangements are required to avoid a steric clash of the cyclo-propyl moiety with the backbone carbonyl group of Lys145 (Figure 2). An alternative binding mode for this compound is also possible in which the core is flipped by 180° compared to 4 but still forms hydrogen bonds with His25 (Figure 12b). In this orientation, both substituents are solvent exposed.
as §1

EcIspE [3] = molecular target: T1, EcIspE; parameters: method as in PMID 18033714, PMID 18633530, PMID 18422643, PMID 17361977, PMID 21903402; conditions: substrate-like IspE inhibitors, Figure 4; cited from earlier work
[4] = average of three independent measurements, SD in brackets, 90 µM ATP, 500 µM CDP-ME, 200 nM EcIspE, pH 8.5, n.i. = no inhibition at solubility limit measured, read-out: IC50 [M] (SD)

T1 sequence (P62615 whole entry): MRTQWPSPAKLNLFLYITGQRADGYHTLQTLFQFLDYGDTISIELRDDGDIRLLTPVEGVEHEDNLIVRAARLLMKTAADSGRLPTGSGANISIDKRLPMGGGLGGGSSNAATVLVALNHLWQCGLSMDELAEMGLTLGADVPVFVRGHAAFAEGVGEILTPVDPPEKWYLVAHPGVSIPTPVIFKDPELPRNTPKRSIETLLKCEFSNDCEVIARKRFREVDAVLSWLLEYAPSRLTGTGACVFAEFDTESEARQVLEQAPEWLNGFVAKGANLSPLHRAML

Compound	IC50 (EcIspE [1]; [4]) [M]	Ligand efficiency (EcIspE [1])	other results
Nc1nc(N)c2[nH]c(=O)[nH]c2n1 [Compound 5]	0.0023	0.37 kcal/mol per non-hydrogen atom	
CC(C)c1cc2cccnc2n1CCC(=O)O [Compound 17]			solubility [2]: 1000 to 5000 µM (≈ 232 to 1160 µg/mL)
O=C1Cc2c([nH]c3ccc(Br)cc23)-c2ccccc2N1 [kenpaullone, reference compound]			EcIspE inhibition at 100 µM (EcIspE [1]): none of the compounds showed any EcIspE inhibition
COc1ccc(-n2c(-c3cccnc3)nc3ccccc3c2=O)cc1 [Compound 21]	2.7e-05	0.28 kcal/mol per non-hydrogen atom	fold weaker IC50 / loss in potency compared to the screening hit (EcIspE [1]): 11 fold
c1ccc(C[n+]2cccc3cc[nH]c32)cc1 [Compound 15]			solubility [2]: 1000 to 5000 µM
purvalanol [reference compound]			EcIspE inhibition at 100 µM (EcIspE [1]): none of the compounds showed any EcIspE inhibition
O=c1c2ccccc2nc(-c2cccnc2)n1-c1ccc(Br)cn1 [Compound 8]		0.35 kcal/mol per non-hydrogen atom	IC50 (EcIspE [1]): 2.5e-06 M
Nc1ccn([C@@H]2O[C@H](CNC(=O)Cc3nc4ccccc4[nH]3)[C@@H](O)[C@H]2O)c(=O)n1 [a]			IC50 (EcIspE [3]): 2000 µM
Cc1[nH]c2ccccc2c1C(Nc1ccccn1)c1ccccc1Cl (centres unmarked) [Compound 19]	0.0024	0.18 kcal/mol per non-hydrogen atom	
O=c1c2ccccc2nc(-c2ccccn2)n1-c1ccccc1 [Compound 22]	0.00018	0.26 kcal/mol per non-hydrogen atom	
CC(C)Nc1nccs1 [Compound 11]	0.002	0.50 kcal/mol per non-hydrogen atom	
CC(C)c1cc2cccnc2n1CCCN [Compound 16]			solubility [2]: 1000 to 5000 µM (≈ 217 to 1090 µg/mL)
Nc1cc(-c2ccco2)[nH]n1 [Compound 6]	0.0035	0.28 kcal/mol per non-hydrogen atom	
CN[C@@H]1C[C@H]2O[C@@](C)([C@@H]1OC)n1c3ccccc3c3c4c(c5c6ccccc6n2c5c31)C(=O)NC4 [staurosporine, reference compound]			EcIspE inhibition at 100 µM (EcIspE [1]): none of the compounds showed any EcIspE inhibition
C1=C(c2c[nH]c3ncccc23)CCNC1 [Compound 4]		0.32 kcal/mol per non-hydrogen atom	IC50 (EcIspE [1]): 0.0015 M
Cc1[nH]c2ccccc2c1C(Nc1cccc(Cl)c1)c1ccccn1 (centres unmarked) [Compound 20]	0.0025	0.18 kcal/mol per non-hydrogen atom	fold weaker IC50 / loss in potency compared to the screening hit (EcIspE [1]): 130 fold
CNC(=S)N1CC=C(c2c[nH]c3ncccc23)CC1 [Compound 12]	0.00083	0.27 kcal/mol per non-hydrogen atom	
CNc1ncc(Br)nc1N [Compound 2]	0.00059	0.53 kcal/mol per non-hydrogen atom	
Cc1[nH]c2ccccc2c1C(Nc1ccccn1)c1cccc(Cl)c1 (centres unmarked) [Compound 18]		0.21 kcal/mol per non-hydrogen atom	
Cc1[nH]c2ccccc2c1C(Nc1ccccn1)c1ccccc1O (centres unmarked) [Compound 7]		0.29 kcal/mol per non-hydrogen atom	IC50 (EcIspE [1]; read-out: IC50): 1.9e-05 M
Nc1ccn([C@@H]2O[C@H](CNC(=O)CCc3nc4ccccc4[nH]3)[C@@H](O)[C@H]2O)c(=O)n1 [b]			IC50 (EcIspE [3]): 2000 µM
c1csc(NC2CCCCC2)n1 [Compound 9]	0.0094	0.30 kcal/mol per non-hydrogen atom	
Oc1csc(Nc2nccs2)n1 [Compound 3]		0.50 kcal/mol per non-hydrogen atom	IC50 (EcIspE [1]; read-out: IC50): 0.00016 M
Oc1ccccc1CNc1nccs1 [Compound 10]	0.0066	0.27 kcal/mol per non-hydrogen atom	
COc1ccc(-n2c(-c3ccncc3)nc3ccccc3c2=O)cc1 [Compound 23]	0.00032	0.23 kcal/mol per non-hydrogen atom	
CN1CC=C(c2c(C3CC3)[nH]c3ncccc23)CC1 [Compound 14]	0.0087	0.19 kcal/mol per non-hydrogen atom	fold weaker IC50 / loss in potency compared to the screening hit (EcIspE [1]): 5.8 fold
Nc1n[nH]c(NCc2cccnc2)n1 [Compound 1]	0.0018	0.33 kcal/mol per non-hydrogen atom	
C1=C(c2c[nH]c3ncccc23)CCN(c2ncccn2)C1 [Compound 13]	0.00047	0.26 kcal/mol per non-hydrogen atom	
